# Measurements taken from paper PMC4730870 (Journal of natural products, 2015).
# System: peritoneal macrophages
# Test: In vitro mammalian toxicity, MTT method
# Assay type: cell-based, BALB/c mice
# Details: CC50 against macrophages/IC50 against amastigotes
smiles,measurement,value
"C=CCc1ccc(Oc2cc([C@H](O)C=C)cc(OC)c2O)c(OC)c1 [Compound 3, 1-[(7R)-Hydroxy-8-propenyl]-3-[3′-methoxy-1′-(8′-propenyl)-phenoxy]-4-hydroxy-5-methoxybenzene]",SI selectivity index (CC50 mammalian cells/IC50 Leishmania amastigotes),>2.9
